Data: PubChem BioAssay AID1159612
Calls of active or inactive are those of the source.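 Rule for the calls: active = compounds displacing the labeled ligand from RAR alpha with half-maximal potency at 10 µM or stronger; inactive = the rest.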

Molecular target: Retinoic acid receptor alpha (Homo sapiens) (UniProt P10276)
Experiment: RARalpha binders by radioligand displacement, dose response, biochemical, [3H]9-cis-retinoic acid (AID 1159612)
Conditions: RARalpha radioligand binding, [3H]9-cis-RA displacement

Chain of Retinoic acid receptor alpha (Homo sapiens) (P10276 whole entry, looked up): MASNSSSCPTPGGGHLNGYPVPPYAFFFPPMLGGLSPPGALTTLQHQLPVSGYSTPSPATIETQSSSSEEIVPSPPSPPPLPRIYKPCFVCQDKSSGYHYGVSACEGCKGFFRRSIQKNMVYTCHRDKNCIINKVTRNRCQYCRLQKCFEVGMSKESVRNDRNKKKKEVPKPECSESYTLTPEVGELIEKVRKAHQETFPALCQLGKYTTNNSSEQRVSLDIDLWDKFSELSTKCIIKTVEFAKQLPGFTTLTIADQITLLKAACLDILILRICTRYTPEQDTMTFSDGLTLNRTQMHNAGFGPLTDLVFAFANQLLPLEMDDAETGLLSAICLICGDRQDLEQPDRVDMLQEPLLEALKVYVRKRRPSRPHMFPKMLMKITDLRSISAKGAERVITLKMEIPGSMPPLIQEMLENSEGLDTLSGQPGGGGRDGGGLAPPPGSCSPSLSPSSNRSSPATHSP

- IC50: inactive
SMILES: CC1=C[C@H](O)CC(C)(C)[C@H]1/C=C/C(C)=C/C=C/C(C)=C/C=C/C=C(C)/C=C/C=C(C)/C=C/C1=C(C)C[C@@H](O)CC1(C)C
